Results published in publication PMC4864329, “In vitro and in vivo efficacy, toxicity, bio-distribution and resistance selection of a novel antibacterial drug candidate” (Scientific Reports, 2016).
Where “and” joins values, the source holds several entries; their conditions need not be identical. Identical values can stand only once.

Test system: Pseudomonas aeruginosa clinical isolates
Test: MIC by standard microdilution, clinical isolates of Pseudomonas aeruginosa
Format: cell-based
Method: Minimum inhibitory concentrations (MICs) of SET-M33L were determined against 76 clinical isolates of Pseudomonas aeruginosa and 73 clinical isolates of Klebsiella pneumoniae. The isolates were selected on the basis of their resistance phenotypes and major antibiotic resistance determinants, including resistance to colistin and carriage of carbapenemase-encoding genes (Table 1 and supplemental Tables S1 and S2).
MIC values were determined against a large collection of clinical isolates. Most isolates were collected during routine susceptibility testing procedures at the Clinical Microbiology Unit of Careggi University Hospital in Florence, while specific isolates were selected according to their phenotype or genotype (e.g. carriage of carbapenemase-encoding genes, inclusion in epidemic bacterial clones, resistance to colistin) from a collection of isolates already available at Department of Medical Biotechnologies, University of Siena. Detailed features of each strain, including relevant resistance phenotypes and genotypes were reported in supplemental Tables S1 and S2. MICs were determined in triplicate using a standard microdilution assay according to the guidelines of the Clinical and Laboratory Standards Institute[34]. SET-M33L was assayed using concentrations in the range 0.09–11.2 μM (0.5–64 μg/mL); testing was performed using a bacterial inoculum of 5 × 10^4 CFU/well prepared in cation-supplemented Mueller-Hinton broth (MHB) (Becton Dickinson, Franklin Lakes, NJ, USA) in a final volume of 100 μl. Results were recorded after 18–20 h of incubation at 35 °C.

Substance: colistin sulfate
- MIC (isolate SI_P1, phenotype none): ≤ 0.5 µg/mL
- MIC (isolate SI_P2, CARB, β/I, ESC, FQ, AG, blaVIM): 2 µg/mL
- MIC (isolate SI_P3, phenotype none): 2 µg/mL
- MIC (isolate SI_P4, CARB, β/I, ESC, FQ, AG): ≤ 0.5 µg/mL
- MIC (isolate SI_P5, CARB, ESC, β/I, FQ, AG): ≤ 0.5 µg/mL
- MIC (isolate SI_P6, phenotype none): 2 µg/mL
- MIC (isolate SI_P7, CARB, β/I, ESC, FQ, AG): ≤ 0.5 µg/mL
- MIC (isolate SI_P8, CARB, ESC, AG): ≤ 0.5 µg/mL
- MIC (isolate SI_P9, CARB, β/I, ESC, FQ, AG): ≤ 0.5 µg/mL
- MIC (isolate SI_P10, CARB, β/I, ESC, FQ, AG): ≤ 0.5 µg/mL
- MIC (isolate SI_P11, CARB, β/I, ESC, FQ, AG): 2 µg/mL
- MIC (isolate SI_P12, CARB, β/I, ESC, FQ): 2 µg/mL
- MIC (isolate SI_P13, phenotype none): 2 µg/mL
- MIC (isolate SI_P14, CARB): 2 µg/mL
- MIC (isolate SI_P15, CARB, β/I, ESC, FQ, AG): ≤ 0.5 µg/mL
- MIC (isolate SI_P16, CARB, β/I, ESC, FQ, AG): 2 µg/mL
- MIC (isolate SI_P17, CARB, β/I, ESC, FQ, AG, blaVIM): ≤ 0.5 µg/mL
- MIC (isolate SI_P18, phenotype none): 1 µg/mL
- MIC (isolate SI_P19, phenotype none): 2 µg/mL
- MIC (isolate SI_P20, phenotype none): ≤ 0.5 µg/mL
- MIC (isolate SI_P21, FQ, AG): 1 µg/mL
- MIC (isolate SI_P22, phenotype none): ≤ 0.5 µg/mL
- MIC (isolate SI_P23, phenotype none): ≤ 0.5 µg/mL
- MIC (isolate SI_P24, phenotype none): ≤ 0.5 µg/mL
- MIC (isolate SI_P25, AG): ≤ 0.5 µg/mL
- MIC (isolate SI_P26, phenotype none): ≤ 0.5 µg/mL
- MIC (isolate SI_P27, CARB): ≤ 0.5 µg/mL
- MIC (isolate SI_P28, phenotype none): ≤ 0.5 µg/mL
- MIC (isolate SI_P29, phenotype none): ≤ 0.5 µg/mL
- MIC (isolate SI_P30, phenotype none): ≤ 0.5 µg/mL
- MIC (isolate SI_P31, phenotype none): ≤ 0.5 µg/mL
- MIC (isolate SI_P32, phenotype none): ≤ 0.5 µg/mL
- MIC (isolate SI_P33, CARB, β/I, ESC, FQ): ≤ 0.5 µg/mL
- MIC (isolate SI_P34, CARB, β/I): ≤ 0.5 µg/mL
- MIC (isolate SI_P35, CARB, β/I, ESC, FQ): 2 µg/mL
- MIC (isolate SI_P36, CARB, AG): ≤ 0.5 µg/mL
- MIC (isolate SI_P37, CARB, β/I, ESC, FQ, AG): ≤ 0.5 µg/mL
- MIC (isolate SI_P38, CARB, β/I, ESC, FQ, AG, blaVIM): ≤ 0.5 µg/mL
- MIC (isolate SI_P39, CARB, β/I, ESC, FQ, AG, blaVIM): ≤ 0.5 μg/mL and ≤ 0.4 μM
- MIC (isolate SI_P40, phenotype none): ≤ 0.5 μg/mL and ≤ 0.4 μM
- MIC (isolate SI_P41, CARB, β/I, ESC, FQ, AG): ≤ 0.5 μg/mL and ≤ 0.4 μM
- MIC (isolate SI_P42, phenotype none): ≤ 0.5 μg/mL and ≤ 0.4 μM
- MIC (isolate SI_P43, FQ): ≤ 0.4 μM and ≤ 0.5 μg/mL
- MIC (isolate SI_P44, CARB, ESC, FQ, AG): ≤ 0.5 μg/mL and ≤ 0.4 μM
- MIC (isolate SI_P45, phenotype none): ≤ 0.5 μg/mL and ≤ 0.4 μM
- MIC (isolate SI_P46, phenotype none): ≤ 0.5 μg/mL and ≤ 0.4 μM
- MIC (isolate SI_P47, phenotype none): ≤ 0.5 μg/mL and ≤ 0.4 μM
- MIC (isolate SI_P48, phenotype none): ≤ 0.5 μg/mL and ≤ 0.4 μM
- MIC (isolate SI_P49, CARB, β/I, ESC, FQ, AG): ≤ 0.5 μg/mL and ≤ 0.4 μM
- MIC (isolate SI_P50, phenotype none): ≤ 0.5 μg/mL and ≤ 0.4 μM
- MIC (isolate SI_P51, CARB, β/I, ESC, FQ, AG): ≤ 0.5 μg/mL and ≤ 0.4 μM
- MIC (isolate SI_P52, CARB, AG): ≤ 0.5 μg/mL and ≤ 0.4 μM
- MIC (isolate SI_P53, CARB, β/I, ESC, FQ): ≤ 0.5 μg/mL and ≤ 0.4 μM
- MIC (isolate SI_P54, CARB, β/I, FQ, AG): ≤ 0.5 μg/mL and ≤ 0.4 μM
- MIC (isolate SI_P55, phenotype none): ≤ 0.5 μg/mL and ≤ 0.4 μM
- MIC (isolate SI_P56, CARB): ≤ 0.5 μg/mL and ≤ 0.4 μM
- MIC (isolate SI_P57, β/I): ≤ 0.5 μg/mL and ≤ 0.4 μM
- MIC (isolate SI_P58, FQ, AG): ≤ 0.5 μg/mL and ≤ 0.4 μM
- MIC (isolate SI_P59, β/I, ESC): ≤ 0.5 μg/mL and ≤ 0.4 μM
- MIC (isolate SI_P60, CARB, β/I, ESC, FQ, AG, blaVIM): 2 μg/mL and 1.5 μM
- MIC (isolate SI_P61, CARB, β/I, ESC, FQ, AG, blaVIM): ≤ 0.5 μg/mL and ≤ 0.4 μM
- MIC (isolate SI_P62, CARB, β/I, ESC, FQ, AG, blaVIM): 2 μg/mL and 1.5 μM
- MIC (isolate SI_P63, CARB, β/I, ESC, FQ, AG, blaVIM): ≤ 0.5 μg/mL and ≤ 0.4 μM
- MIC (isolate SI_P64, CARB, β/I, ESC, FQ, AG): ≤ 0.5 μg/mL and ≤ 0.4 μM
- MIC (isolate SI_P65, CARB, β/I, ESC, FQ, AG): 2 μg/mL and 1.5 μM
- MIC (isolate SI_P66, CARB, FQ): ≤ 0.5 μg/mL and ≤ 0.4 μM
- MIC (isolate SI_P67, CARB, β/I, ESC, FQ, AG, blaVIM): ≤ 0.5 μg/mL and ≤ 0.4 μM
- MIC (isolate SI_P68, phenotype none): ≤ 0.5 μg/mL and ≤ 0.4 μM
- MIC (isolate SI_P69, CARB): 2 μg/mL and 1.5 μM
- MIC (isolate SI_P70, CARB): ≤ 0.5 μg/mL and ≤ 0.4 μM
- MIC (isolate SI_P71, phenotype none): ≤ 0.5 μg/mL and ≤ 0.4 μM
- MIC (isolate SI_P72, FQ, AG): 2 μg/mL and 1.5 μM
- MIC (isolate SI_P73, β/I): ≤ 0.5 μg/mL and ≤ 0.4 μM
- MIC (isolate SI_P74, phenotype none): ≤ 0.5 μg/mL and ≤ 0.4 μM
- MIC (isolate SI_P75, CARB, β/I, ESC, FQ, AG, blaIMP): 2 μg/mL and 1.5 μM
- MIC (isolate SI_P76, CARB, β/I, ESC, FQ, AG, blaIMP): 1 μg/mL and 0.7 μM
